Assay results from patent publication US20250017940A1, “SELECTIVE PEPTIDOMIMETIC MODULATORS OF CAV2.2 (N-TYPE) VOLTAGE-GATED CALCIUM CHANNELS AND USES THEREOF” (New York University, priority 2023, published 2025).

How the values were obtained:
[1] = test system: voltage-gated potassium channels; test: Whole-cell patch-clamp, total potassium currents in DRG neurons; type: cell-based, rat; conditions: 20 μM (DMSO: 420.9±54.19)
Description: Recordings were obtained from acutely dissociated DRG neurons as described earlier (Bellampalli et al., 2019). Patch-clamp recordings were performed at room temperature (22-24° C.). Currents were recorded using an EPC 10 Amplifier-HEKA (HEKA Elektronik, Ludwigshafen, Germany) linked to a computer with Patchmaster software. DRG neurons were incubated overnight (˜16-24 hours) with 20 μM of CBD3063.
To isolate potassium currents (IK+), DRG neurons were bathed in external solution composed of (in millimolar): 140 N-methyl-glucamine chloride, 5 KCl, 1 MgCl2, 2 CaCl2, 10 D-glucose, and 10 HEPES (pH adjusted to 7.3 with KOH and mOsm/L=313). Recording pipettes were filled with internal solution containing (in mM): 140 KCl, 2.5 MgCl2, 4 Mg-ATP, 0.3 Na-GTP, 2.5 CaCl2), 5 EGTA, and 10 HEPES (pH adjusted to 7.3 with KOH and mOsm/L=320). From a holding potential of −60 mV, IK activation was determined by applying 300-millisecond voltage steps from −80 to +60 mV in 10-mV increments.
Normalization of currents to each cell's capacitance (pF) was performed to allow for collection of current density data. For I-V curves, functions were fitted to data using a non-linear least squares analysis. I-V curves were fitted using double Boltzmann functions: […]

Cav2.2-CRMP2 interaction = molecular target: T1, Cav2.2-CRMP2 interaction (Mus musculus, UniProt O55017); test: CRMP2 immunoprecipitation to detect Cav2.2 in CAD cells; type: cell-based
T1 construct: a mouse neuronal cell line expressing both CRMP2 and Cav2.2; endogenous in cells; host or cells: mouse CAD cells (ECACC Cat #08100805)
Description: Mouse neuron derived Cathecholamine A differentiated CAD cells (ECACC Cat #08100805, RRID: CVCL_0199) were grown in standard cell culture conditions, 37° C. in 5% (vol/vol) CO2. The cells were maintained in DMEM/F12 media supplemented with 10% (vol/vol) FBS (HyClone) and 1% penicillin/streptomycin sulfate from 10,000 μg/mL stock.
CAD cells were incubated overnight with a vehicle (0.1% DMSO) or CBD3063 (20 μM). The next day the cells were lysed into the IP buffer containing 20 mM Tris-HCl pH=7.4, 50 mM NaCl, 2 mM MgCl2, 10 mM N-Ethylmaleimide (NEM), 1% (vol/vol) NP-40, 0.5% (mass/vol) sodium deoxycholate, 0.1% (mass/vol) sodium dodecyl sulfate (SDS) with protease inhibitors (Cat #B14002, Biotool, Houston, TX), phosphatase inhibitors (Cat #B15002, Biotool, Houston, TX) and Nuclease (Cat #88701, Thermo Fisher Scientific, Waltham, MA). Total protein concentration was determined by BCA protein assay kit (Cat #PI23225, Thermo Fisher Scientific, Waltham, MA). Five hundred micrograms of total protein were incubated overnight with 2 μg of CRMP2 antibody (Cat #C2993, Sigma-Aldrich, St. Louis, MO) at 4° C. under gentle agitation. Protein G magnetic beads (Cat #10004D, Thermo Fisher Scientific, Waltham, MA), pre-equilibrated with the immunoprecipitation buffer, were then added to the lysates and incubated for 2 hours at 4° C. to capture immuno-complexes. […]

T1 sequence (O55017 whole entry): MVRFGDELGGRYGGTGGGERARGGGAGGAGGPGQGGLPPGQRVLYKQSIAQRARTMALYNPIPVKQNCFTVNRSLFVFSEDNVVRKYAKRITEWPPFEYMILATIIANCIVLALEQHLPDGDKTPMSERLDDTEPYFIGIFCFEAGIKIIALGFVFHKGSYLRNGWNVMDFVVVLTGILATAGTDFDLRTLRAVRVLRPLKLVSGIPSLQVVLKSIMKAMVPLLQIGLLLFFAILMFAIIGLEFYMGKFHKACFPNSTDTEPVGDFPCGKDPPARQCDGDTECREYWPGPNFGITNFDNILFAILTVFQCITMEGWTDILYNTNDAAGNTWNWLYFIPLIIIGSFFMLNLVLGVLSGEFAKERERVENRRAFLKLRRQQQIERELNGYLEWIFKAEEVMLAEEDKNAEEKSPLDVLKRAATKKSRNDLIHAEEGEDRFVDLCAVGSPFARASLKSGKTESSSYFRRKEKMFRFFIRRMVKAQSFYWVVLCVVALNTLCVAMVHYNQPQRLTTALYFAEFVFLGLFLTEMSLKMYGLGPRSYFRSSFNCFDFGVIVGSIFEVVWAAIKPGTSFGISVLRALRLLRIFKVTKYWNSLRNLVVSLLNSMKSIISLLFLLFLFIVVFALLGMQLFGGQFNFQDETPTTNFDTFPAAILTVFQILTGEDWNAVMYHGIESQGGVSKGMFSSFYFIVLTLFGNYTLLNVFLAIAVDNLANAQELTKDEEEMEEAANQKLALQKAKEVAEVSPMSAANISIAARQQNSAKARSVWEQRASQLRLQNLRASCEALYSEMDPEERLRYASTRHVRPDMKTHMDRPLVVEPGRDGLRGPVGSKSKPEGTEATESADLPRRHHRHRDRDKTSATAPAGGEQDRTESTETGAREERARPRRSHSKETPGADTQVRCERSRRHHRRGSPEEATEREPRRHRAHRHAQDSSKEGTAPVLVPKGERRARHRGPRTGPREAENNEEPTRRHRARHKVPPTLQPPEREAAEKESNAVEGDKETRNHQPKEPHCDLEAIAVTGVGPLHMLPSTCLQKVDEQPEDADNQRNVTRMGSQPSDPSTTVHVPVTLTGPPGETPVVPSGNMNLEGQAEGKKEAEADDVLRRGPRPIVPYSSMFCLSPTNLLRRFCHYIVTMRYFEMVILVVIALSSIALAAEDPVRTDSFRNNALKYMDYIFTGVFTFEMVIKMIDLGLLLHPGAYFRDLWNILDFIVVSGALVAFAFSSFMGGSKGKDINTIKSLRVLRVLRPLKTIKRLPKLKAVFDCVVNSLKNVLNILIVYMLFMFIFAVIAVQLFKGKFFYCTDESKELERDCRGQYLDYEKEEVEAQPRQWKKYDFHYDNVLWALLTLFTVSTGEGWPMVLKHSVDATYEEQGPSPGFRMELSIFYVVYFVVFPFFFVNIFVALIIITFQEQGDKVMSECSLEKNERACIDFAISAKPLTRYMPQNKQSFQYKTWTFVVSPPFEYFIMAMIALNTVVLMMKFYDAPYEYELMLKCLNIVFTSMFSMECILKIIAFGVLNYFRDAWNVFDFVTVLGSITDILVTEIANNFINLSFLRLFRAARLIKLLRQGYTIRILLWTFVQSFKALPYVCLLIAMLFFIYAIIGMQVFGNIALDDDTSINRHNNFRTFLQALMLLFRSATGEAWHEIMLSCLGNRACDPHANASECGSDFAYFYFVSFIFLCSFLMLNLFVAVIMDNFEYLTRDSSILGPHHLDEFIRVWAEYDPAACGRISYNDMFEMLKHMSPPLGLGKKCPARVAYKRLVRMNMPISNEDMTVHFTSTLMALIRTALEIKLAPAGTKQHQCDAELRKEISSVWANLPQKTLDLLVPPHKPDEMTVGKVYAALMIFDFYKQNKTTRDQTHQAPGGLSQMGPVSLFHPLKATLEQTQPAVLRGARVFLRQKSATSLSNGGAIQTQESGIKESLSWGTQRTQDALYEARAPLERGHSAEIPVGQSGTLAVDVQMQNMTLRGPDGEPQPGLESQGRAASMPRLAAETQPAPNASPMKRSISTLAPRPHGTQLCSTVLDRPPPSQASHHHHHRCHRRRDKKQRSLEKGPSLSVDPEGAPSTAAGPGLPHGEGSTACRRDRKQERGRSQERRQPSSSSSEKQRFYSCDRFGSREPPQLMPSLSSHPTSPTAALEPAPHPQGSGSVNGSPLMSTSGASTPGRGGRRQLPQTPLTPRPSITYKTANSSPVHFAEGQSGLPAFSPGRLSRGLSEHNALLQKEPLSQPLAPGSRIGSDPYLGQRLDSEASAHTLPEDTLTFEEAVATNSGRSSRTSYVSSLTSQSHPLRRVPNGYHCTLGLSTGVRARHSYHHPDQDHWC

CC(=O)N[C@@H]1CCCN(C(=O)NCCCNc2ccccn2)C1 [CBD3063, (3R)-3-acetamido-N-[3-(pyridin-2-ylamino)propyl]piperidine-1-carboxamide]
peak potassium current density [1]: 422.1±52.70 pA/pF | relative Cav2.2 binding to CRMP2 (Cav2.2-CRMP2 interaction; 20 μM overnight (DMSO: 1.00±0.05)): 0.64±0.02 | reduction in the level of Cav2.2 protein immunoprecipitated by CRMP2 (Cav2.2-CRMP2 interaction; 20 μM overnight, versus control): ~35%
